US10239881B2, “RIPK2 inhibitors and method of treating cancer with same” (University Health Network, priority 2014, dated 2019)

How the values were obtained:
[1] = target: human RIPK2 kinase (Homo sapiens (Human), UniProt O43353); assay: RIPK2 inhibition assay (indirect ELISA); assay type: biochemical; details: His-RIPK2 0.6 nM, 6 μM ATP; read-out: RIPK2 IC50 range
Method: Active RIPK2 was purchased from Life Technologies as His-tagged of catalityc domain (amin acids 1-299) of human RIPK2 kinase expressed in insect cells. Amino terminal 6 histidine, sumo tagged human TTK (residues 1-275) was expressed in E. coli, and purified to >95% homogeneity by Ni^2+ agarose, gel filtration, and ion exchange chromatography.
RIPK2 activity was measured using an indirect ELISA detection system. His—RIPK2 (0.6 nM) was incubated in the presence of 6 μM ATP (Sigma cat # A7699), 20 mM Hepes, pH 7.5, 1 mM EGTA, 2.5 mM MgCl2, 2.5 mM MnCl2 and 0.01% Triton X-100 in a 96 well microtitre plate pre-coated with amino terminal 6 histidine, sumo tagged TTK (amino acid residues 1-275). The reaction was allowed to proceed for 30 minutes, followed by 5 washes of the plate with Wash Buffer (phosphate buffered saline supplemented with 0.2% Tween 20), and incubation for 30 minutes with a 1:3000 dilution of primary antibody (Cell Signaling cat #9381). The plate was washed 5 times with Wash Buffer, incubated for 30 minutes in the presence of secondary antibody coupled to horse radish peroxidase (BioRad cat #1721019, 1:3000 concentration), washed an additional 5 times with Wash Buffer, and incubated in the presence of TMB substrate (Sigma cat # T0440). The colorimetric reaction was allowed to continue for 5 minutes, followed by addition of stop solution (0.5 N H2SO4), and quantified by detection at 450 nm with either a monoChromatic or filter based plate reader (Molecular Devices M5 or Beckman DTX880, respectively).
Compound inhibition was determined at either a fixed concentration (10 μM) or at a variable inhibitor concentration (typically 50 μM to 0.1 μM in a 10 point dose response titration). Compounds were pre-incubated in the presence of enzyme for 15 minutes prior to addition of ATP and the activity remaining quantified using the above described activity assay. The % Inhibition of a compound was determined using the following formula; % Inhibition=100×(1−(experimental value−background value)/(high activity control−background value)). The IC50 value was determined using a non-linear 4 point logistic curve fit (XLfit4, IDBS) with the formula; (A+(B/(1+((x/C)^D)))), where A=background value, B=range, C=inflection point, D=curve fit parameter.

[2] = system: HCT116 colon cancer cells; assay: Sulforhodamine B cell growth inhibition assay; assay type: cell-based; details: Homo sapiens, HCT-116, 120 h; 5 days, SRB; read-out: Colon GI50 range HCT116
Method: (§1) Breast cancer cells (MDA-MB-231 and MDA-MB-468), colon cancer cells (HCT116 and HT-29) and ovarian cancer cells (SKOV-3 and OVCAR-3) were seeded (1000 to 4000 in 80 μL per well depending on the cell growth rate) into 96 well plates 24 hours before compound overlay. Compounds were prepared as 10 mM stock solutions in 100% DMSO which were diluted with DMEM (Dulbecco's Modified Eagle's Medium) cell growth Medium (Invitrogen, Burlington, ON, Canada) containing 10% FBS (Fetal Bovine Serum) to concentrations ranging from 50 nM to 250 μM. Aliquots (20 μL) from each concentration were overlaid to 80 μL of the pre-seeded cells in the 96 well plates to make final concentrations of 10 nM to 50 μM. The cells were cultured for 5 days before the Sulforhodamine B assay (SRB) was performed to determine the compound's cell growth inhibition activity.
(§2) The cells are fixed in situ by gently aspirating off the culture media and adding 50 μL ice cold 10% trichloroacetic acid per well and incubate at 4° C. for 30-60 min. The plates are washed with H2O five times and allowed to air dry for 5 min. Addition of 50 μL 0.4% (w/v) SRB solution in 1% (v/v) acetic acid to each well and incubation for 30 min at rt completes the staining reaction. Following staining, plates are washed four times with 1% acetic acid to remove unbound dye and then allowed to air dry for 5 min. The stain is solubilized with 100 μL of 10 mM Tris pH 10.5 per well. Absorbance is read at 570 nm. The percentage (%) of relative growth inhibition was calculated by comparing to DMSO treated only cells (100%). GI50's were determined for compounds with cytotoxic activity. The GI50 was calculated using GraphPad PRISM software (GraphPad Software, Inc., San Diego, Calif., USA). GI50 (growth inhibition) is the compound concentration that causes 50% inhibition of cell growth.
(§3) In Table 2 lists GI50 value ranges for compound examples against breast cancer cell lines (MDA-MB-231, MDA-MB-468), colon cancer cell lines (HCT116, HT-29) and ovarian cancer cell lines (OVCAR-3, SKOV-3) are given. […] The GI50 ranges are indicated as “A,” “B,” and “C,” for values less than or equal to 1 μM; those greater than 1 μM and less than or equal to 10 μM; and those greater than 10 μM, respectively.

[3] = system: HT-29 colon cancer cells; assay: Sulforhodamine B cell growth inhibition assay; assay type: cell-based; details: Homo sapiens, HT-29, 120 h; 5 days, SRB; read-out: Colon GI50 range HT29
Method: as §1, §2, §3

[4] = system: MDA-MB-231 breast cancer cells; assay: Sulforhodamine B cell growth inhibition assay; assay type: cell-based; details: Homo sapiens, MDA-MB-231, 120 h; 5 days, SRB; read-out: Breast GI50 range MDA-MB-231
Method: as §1, §2, §3

[5] = system: MDA-MB-468 breast cancer cells; assay: Sulforhodamine B cell growth inhibition assay; assay type: cell-based; details: Homo sapiens, MDA-MB-468, 120 h; 5 days, SRB; read-out: Breast GI50 range MDA-MB-468
Method: as §1, §2, §3

[6] = system: OVCAR-3 ovarian cancer cells; assay: Sulforhodamine B cell growth inhibition assay; assay type: cell-based; details: Homo sapiens, OVCAR-3, 120 h; 5 days, SRB; read-out: Ovarian GI50 range OVCAR-3
Method: as §1, §2, §3

[7] = system: SKOV-3 ovarian cancer cells; assay: Sulforhodamine B cell growth inhibition assay; assay type: cell-based; details: Homo sapiens, SK-OV-3, 120 h; 5 days, SRB; read-out: Ovarian GI50 range SKOV-3
Method: as §1, §2, §3

[8] = system: IL-12-yellow fluorescent protein (YFP) reporter mouse bone marrow dendritic cells; assay: IL-12-YFP reporter dendritic cells, flow cytometric analysis; assay type: cell-based; details: stimulated 24 hours with LPS or Pam3Cys ± 1 μg/ml MDP
Method: FIGS. 2(A)-(C) are graphs illustrating the effects of compound A3 on cytokine production by dendritic cells.
(§4) IL-12-yellow fluorescent protein (YFP) reporter mouse bone marrow dendritic cells were stimulated for 24 hours with 0.3 ng/ml LPS±1 μg/ml MDP (i.e., NOD2 agonist) in the presence of Example A3 (FIG. 2A). IL-12-yellow fluorescent protein (YFP) reporter mouse bone marrow dendritic cells were stimulated for 24 hours with 0.3 μg/ml Pam3Cys±1 μg/ml MDP (i.e., NOD2 agonist) in the presence of Example A3 (FIG. 2B). […] Data are represented as the mean±SEM of triplicate measurements. Levels of IL-12 p70 (FIG. 2C, left panel) and TNFα (FIG. 2C, right panel) in the cell culture supernatants from A were measured by ELISA techniques with commercially available kits. […] Data are represented as the mean±SEM of triplicate measurements.

[9] = system: mouse bone marrow dendritic cells; assay: Dendritic cell viability by 7AAD exclusion; assay type: cell-based; details: stimulated 24 hours with LPS or Pam3Cys ± 1 μg/ml MDP
Method: as §4

[10] = system: IL-12 p70; assay: IL-12 p70 in dendritic cell culture supernatants by ELISA; assay type: cell-based, mouse; details: 0.3 ng/ml LPS ± 1 μg/ml MDP, 24 hours
Method: as §4

[11] = system: TNFα; assay: TNFα in dendritic cell culture supernatants by ELISA; assay type: cell-based, mouse; details: 0.3 ng/ml LPS ± 1 μg/ml MDP, 24 hours
Method: as §4

Sequence of human RIPK2 kinase (O43353 1-299): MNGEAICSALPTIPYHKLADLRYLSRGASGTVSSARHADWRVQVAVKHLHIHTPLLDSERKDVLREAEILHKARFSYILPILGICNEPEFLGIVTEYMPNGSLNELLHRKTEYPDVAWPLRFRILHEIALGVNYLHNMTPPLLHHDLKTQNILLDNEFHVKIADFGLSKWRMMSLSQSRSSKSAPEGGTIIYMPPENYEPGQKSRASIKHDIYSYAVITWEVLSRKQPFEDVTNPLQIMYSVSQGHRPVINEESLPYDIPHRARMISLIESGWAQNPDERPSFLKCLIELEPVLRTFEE

| SMILES | IC50 [1] [nM] | GI50 [2] [nM] | GI50 [3] [nM] | GI50 [4] [nM] | GI50 [5] [nM] | GI50 [6] [nM] | GI50 [7] [nM] | percentage of YFP positive cells (percentage of IL-12 positive cells) [8] | mean fluorescence intensity YFP (amount of IL-12) ([8]; MDP-dependent) | cell viability as assessed by 7AAD exclusion [9] | levels of IL-12 p70 in cell culture supernatants [10] | levels of TNFα in cell culture supernatants [11] |
| --- | --- | --- | --- | --- | --- | --- | --- | --- | --- | --- | --- | --- |
| Cc1ccccc1-c1cc2nc(Nc3cccc(N4CCOCC4)c3)ncc2[nH]1 [Example A3, N-(3-morpholinophenyl)-6-(o-tolyl)-5H-pyrrolo[3,2-d]pyrimidin-2-amine] | ≤ 100 | ≤ 1000 | ≤ 1000 | ≤ 1000 | ≤ 1000 | ≤ 1000 | ≤ 1000 | minimal effect | dose-dependent reduction | no measurable effect | dose-dependent reduction | dose-dependent reduction |
| Cc1ccccc1-c1cc2nc(Nc3cccc(N4CCN(C)CC4)c3)ncc2[nH]1 [Example A4, N-(3-(4-methylpiperazin-1-yl)phenyl)-6-(o-tolyl)-5H-pyrrolo[3,2-d]pyrimidin-2-amine] | ≤ 100 | ≤ 1000 | ≤ 1000 | ≤ 1000 | ≤ 1000 | ≤ 1000 | 1000 to 10000 |  |  |  |  |  |
| Cc1cccc(C)c1-c1cc2nc(Nc3cccc(N4CCOCC4)c3)ncc2[nH]1 [Example A12, 6-(2,6-dimethylphenyl)-N-(3-morpholinophenyl)-5H-pyrrolo[3,2-d]pyrimidin-2-amine] | ≤ 100 | 1000 to 10000 | 1000 to 10000 | 1000 to 10000 | 1000 to 10000 | ≤ 1000 | ≤ 1000 |  |  |  |  |  |
| Fc1ccccc1-c1cc2nc(Nc3cccc(N4CCOCC4)c3)ncc2[nH]1 [Example A13, 6-(2-fluorophenyl)-N-(3-morpholino-phenyl)-5H-pyrrolo[3,2-d]pyrimidin-2-amine] | 100 to 500 | ≤ 1000 | ≤ 1000 | ≤ 1000 | ≤ 1000 | ≤ 1000 | ≤ 1000 |  |  |  |  |  |
